Where a name gives a salt, the structure may show the parent alone. Numbered stars: 1 amine (or outer) side, 2 acyl side, 3 side chain; on linkers, the order of the positions; unused ones are H or OH. Bridge positions count the residues as written; N and C are the ends. Square brackets hold non-standard residues; d marks the D form. Peptide text beside a SMILES is read from it. I, II: the chains in the order shown. Actinocin(9to1) = Cc1c2oc3c(C)ccc(C(=O)[*:1])c3nc-2c(C(=O)[*:2])c(N)c1=O; NMeV = CN[C@H](C(=O)O)C(C)C; Sar = CNCC(=O)O
What was measured:
[1] = tested on: spontaneous breast cancer rat cells (SST-2); assay: Lung metastasis of SST-2 in SHR rats, ascorbic acid derivative combined with known anticancer agent (Example 4); type: in vivo
Protocol: 1×100,000 spontaneous breast cancer rat cells (SST-2) were subcutaneously implanted into the back of a rat (SHR rat) (5 rats per group) suffering from spontaneous hypertension. After 35 days, the rats were sacrificed, and the number of colonies formed were measured to examine the degree of metastasis of SST-2 to the lung.
The ascorbic acid derivatives used were L-ascorbic acid-2-phosphate-6-palmitate, L-ascorbic acid-6-benzoate (reference compound) and magnesium L-ascorbic acid-2-phosphate.
Each of the groups treated with an ascorbic acid derivative was subjected to a test of administering the ascorbic acid derivative alone and to a test of administering the ascorbic acid derivative in combination with a known anticancer agent as shown in Table 4. Furthermore, tests of administering the anticancer agents alone were conducted. Over the period of from 7 days prior to implantation to 34 days after the implantation, the ascorbic acid derivative was injected through a vein in the tail region at a dose of 1 mg/1 day/rat. Each of the known anticancer agents was perorally administered in a minimum dose by reference to the concentration for a single use case described in the publication, Tyakuhin Yoran (Medical Product Handbook), 4th Edition, pp. 1474-1509, Yakugyo Jiho-Sha (1989), and the number of colonies formed after metastasis was compared.

[2] = tested on: spontaneous breast cancer rat cells (SST-2); assay: as above; type: in vivo; remark: listed apart in the source
[3] = ascorbic acid derivative 1 mg/1 day/rat tail vein, day -7 to day 34, known anticancer agent perorally in minimum dose, colonies after 35 days

Row | Compound | Cancer metastasis inhibitory effect of combination with L-Ascorbic Acid-2-Phosphate-6-Palmitate versus each agent alone [1, 3] | Cancer metastasis inhibitory effect of combination with L-Ascorbic Acid-2-Phosphate-6-Benzoate versus each agent alone [2, 3] | Cancer metastasis inhibitory effect of combination with L-Ascorbic Acid-6-Palmitate versus each agent alone [2, 3] | Cancer metastasis inhibitory effect of combination with L-Ascorbic Acid-2-Phosphate-6-Palmitate versus each agent alone ([1]; rat, in vivo) | Cancer metastasis inhibitory effect of combination with L-Ascorbic Acid-2-Phosphate-6-Benzoate versus each agent alone ([2]; rat, in vivo) | Cancer metastasis inhibitory effect of combination with L-Ascorbic Acid-6-Palmitate versus each agent alone ([2]; rat, in vivo)
1 | N=c1ccn2c(n1)O[C@H]1[C@H](O)[C@@H](CO)O[C@H]12 [ANCITABINE hydrochloride] | + | + | − |  |  | 
2 | COC(COC(N)=O)C1=C(N2CC2)C(=O)C(C)=C(N2CC2)C1=O (stereo not drawn) [CARBOCON] | + | + | − |  |  | 
3 | C[C@]12CC[C@@H]3c4ccc(OC(=O)N(CCCl)CCCl)cc4CC[C@H]3[C@@H]1CC[C@@H]2OP(=O)(O)O [Estracyt (R)] | + | + | − |  |  | 
4 | CC/C(=C(/CC)c1ccc(OP(=O)(O)O)cc1)c1ccc(OP(=O)(O)O)cc1 [HONPAN] | + | + | − |  |  | 
5 | O[C@@H]([C@H](O)[C@H](O)CBr)[C@H](O)CBr [MITOPURNITOL] | + | + | − |  |  | 
6 | CS(=O)(=O)OCCCNCCCOS(C)(=O)=O.Cc1ccc(S(=O)(=O)O)cc1 [Protecton (R)] | + | + | − |  |  | 
7 | S=P(N1CC1)(N1CC1)N1CC1 [TIOTEBA] | + | + | − |  |  | 
8 | CC(=O)O[C@@H]1C(=O)O[C@H]2[C@@H]1OC(=O)[C@@H]2OC(C)=O [aceglatone] | + | + | − |  |  | 
9 | CC[C@@]1(O)C[C@H](O[C@H]2C[C@H](N(C)C)[C@H](O[C@H]3C[C@H](O)[C@H](O[C@H]4CCC(=O)[C@H](C)O4)[C@H](C)O3)[C@H](C)O2)c2c(cc3c(c2O)C(=O)c2c(O)cccc2C3=O)[C@H]1C(=O)OC [aclarubicin hydrochloride] |  |  |  | + | + | −
10 | Cc1c2oc3c(C)ccc(C(=O)N[C@@H]4C(=O)N[C@H](C(C)C)C(=O)N5CCC[C@H]5C(=O)N(C)CC(=O)N(C)[C@@H](C(C)C)C(=O)O[C@@H]4C)c3nc-2c(C(=O)N[C@@H]2C(=O)N[C@H](C(C)C)C(=O)N3CCC[C@H]3C(=O)N(C)CC(=O)N(C)[C@@H](C(C)C)C(=O)O[C@@H]2C)c(N)c1=O [actinomycin (D)] (I: T[dV]P[Sar][NMeV] / II: T[dV]P[Sar][NMeV]; ester I:1-I:C, II:1-II:C; linker I:N-II:N via Actinocin(9to1)) |  |  |  | + | + | −
11 | CS(=O)(=O)OCCCCOS(C)(=O)=O [bulsfan] |  |  |  | + | ± | −
12 | CCCCCCNC(=O)n1cc(F)c(=O)[nH]c1=O [carmofur] | + | + | − |  |  | 
13 | CO[C@@H]1[C@H](O)C[C@@H](O[C@@H]2C[C@H](Oc3cc4cc5c(c(O)c4c(O)c3C)C(=O)[C@@H](O[C@H]3C[C@@H](O[C@H]4C[C@@H](O[C@H]6C[C@](C)(O)[C@@H](OC(C)=O)[C@H](C)O6)[C@H](O)[C@@H](C)O4)[C@H](O)[C@@H](C)O3)[C@H]([C@H](OC)C(=O)[C@@H](O)[C@@H](C)O)C5)O[C@H](C)[C@@H]2OC(C)=O)O[C@@H]1C [chromomycin A3] | + | + | − |  |  | 
14 | N.N.[Cl][Pt][Cl] [cisplatin] | + | + | − |  |  | 
15 | O=P1(N(CCCl)CCCl)NCCCO1 (stereo not drawn) [cyclophosphamido] | + | + | − |  |  | 
16 | Nc1ccn([C@@H]2O[C@H](CO)[C@@H](O)[C@@H]2O)c(=O)n1 [cytarabine] | + | + | − |  |  | 
17 | COc1cccc2c1C(=O)c1c(O)c3c(c(O)c1C2=O)C[C@@](O)(C(C)=O)C[C@@H]3O[C@H]1C[C@H](N)[C@H](O)[C@H](C)O1 [daunorubicin hydrochloride] |  |  |  | + | + | −
18 | CN(C)/N=N/c1[nH]cnc1C(N)=O [decarbazine] | + | + | − |  |  | 
19 | COc1cccc2c1C(=O)c1c(O)c3c(c(O)c1C2=O)C[C@@](O)(C(=O)CO)C[C@@H]3O[C@H]1C[C@H](N)[C@H](O)[C@H](C)O1 [doxorubicin hydrochloride] | + | + | − |  |  | 
20 | CCCCCCCCCCCCCCCCCCCCCC(=O)Nc1ccn([C@@H]2O[C@H](CO)[C@@H](O)[C@@H]2O)c(=O)n1 [enocitabine] | + | ± | − |  |  | 

From patent US20020010210A1, “PHARMACEUTICAL PREPARATION AND METHOD FOR TREATING CANCER” (priority 1997, published 2002)
